Key:
[1] = tested on: rice seeds (Hayamasari, NILHYqLTG-3-1, Italica Livorno); assay: germination tests under stress conditions (ABA, GA, NaCl, mannitol, temperature); design: species or system rice (O. sativa); settings: for germination response at low NaCl / mannitol concentrations: concentrations lower than 250 mM mannitol and 150 mM NaCl
Protocol: To study the germinability under difference stress conditions, germination tests were carried out according to the method reported by Fujino et al. (2004). For low-temperature stress, seeds were placed on Petri dishes which were then loaded into an incubator. Solutions of plant hormones (ABA and GA), NaCl and mannitol at different concentrations were added to the Petri dishes which were then placed in an incubator. […] (A) is the germination at the optimal temperature of 25° C., (B) is the germination at 13° C., (C) is the sensitivity to NaCl (300 mM), (D) is the sensitivity to mannitol (500 mM), and (E) is the sensitivity to ABA ([…]). Examples of […]-3-1 (closed triangles), and Italica Livorno (open circles) are shown. The numerical values represent the mean±standard deviation (SD) for triplicates. […] In (A), the seeds were incubated in water at 25° C., 15° C., 13° C. and 10° C. In (B), GA (100, 200, 500 μM) was added at 15° C.; in (C), ABA ([…]) was added at 25° C.; in (D), NaCl (150, 250, 300 mM) was added; and in (E), mannitol (250, 500, 600 mM) was added, following which incubation was carried out. The open circles indicate controls. The low concentrations to high concentrations are indicated by, in order, open circles, triangles and squares. […] The open and closed symbols represent, respectively, the presence and absence of […]-3-1 and Italica Livorno are represented by, respectively, circles, triangles, and squares. […] Germination tests were carried out by the method reported by Fujino et al. (2004). For the low temperature stress, seeds on a Petri dish were placed in an incubator. Solutions of plant hormone (ABA and GA) and mannitol at different concentrations were added to the Petri dishes at this time before placing the dishes in the incubator.

qLTG-3-1 gene = qLTG-3-1 gene expression by Northern blot and RT-PCR analysis; design: species or system rice (O. sativa); settings: ABA, NaCl (250 mM), mannitol (500 mM)
Protocol: To carry out an analysis of gene expression, the total RNA was extracted from various organs of rice using RNAiso (TAKARA). The total RNA (0.5 μg) was reverse-transcripted with Rever Tra Ace (TOYOBO) having an Oligo(dT)20 primer, in accordance with the manufacturing guidelines. The PCR reaction was carried out using KOD-plus (TOYOBO). Each PCR reaction (10 μL) included 0.5 μL of cDNA template that had been diluted 5-fold. The specificity of each primer for the target gene was confirmed by PCR product sequencing. For the purpose of Northern blotting analysis, the total RNA (4 μg/sample) was isolated on 2.0% (w/v) agarose-modified formaldehyde gel containing 40 mM MOPS (pH 7.0), 10 mM Na-acetate, 1 mM EDTA and 2% (v/v) formaldehyde.
The RNA was transferred with 20×SSC to a positively charged nylon membrane (Roche Diagnostics). Hybridization and signal detection were carried out by, respectively, a DIG system and CDP-star (Roche Diagnostics). The PCR fragments from the primers 13-5U and 13-5L were used as the probes for Northern blot analysis. The primers and amplification conditions for RT-PCR analysis are shown subsequently in Table 5.
In this example, the expression of the qLTG-3-1 gene was studied. Using RNAiso (TAKARA), the total RNA was extracted from each organ of rice and treated with DNaseI (TAKARA). For Northern blot analysis, the total RNA (4 μg/sample) was separated on 2.0% (w/v) agarose-modified formaldehyde gel containing 40 mM of MOPS (pH 7.0), 10 mM of sodium acetate and 2% (v/v) formaldehyde.
The RNA was blotted with 20×SSC to a positively charged nylon membrane (Roche Diagnostics). Hybridization and signal detection were carried out with a DIG system and CDP-Star (Roche Diagnostics) according to the manufacturing guidelines. The PCR fragments obtained from the primers 13-5U and 13-5L were used as the probes for Northern blot analysis (Table 5).
In this example, the association between qLTG-3-1 expression and seed germination was examined. […]

Structure (SMILES) | germination response in ABA treatment ([1]; ABA added at 25° C.) | qLTG-3-1 expression pattern in embryos under stress treatment (qLTG-3-1 gene) | effect of exogenous GA on seed germination ([1]; 15° C., Hayamasari, NILHYqLTG-3-1 and Italica Livorno) | germination response at low NaCl / mannitol concentrations [1]
CC1=CC(=O)CC(C)(C)C1(O)/C=C/C(C)=C\C(=O)O (stereo not shown) [ABA] | a delay in germination was observed in both parents | delay and suppression of qLTG-3-1 expression | – | –
C=C1C[C@]23C[C@@]1(O)CC[C@H]2[C@@]12C=C[C@H](O)[C@@](C)(C(=O)O1)[C@H]2[C@@H]3C(=O)O [GA] | – | – | did not promote seed germination in any of the genotypes | –
[Cl-].[Na+] [NaCl] | – | delay and suppression of qLTG-3-1 expression | – | all the varieties showed a delay in germination
OC[C@@H](O)[C@@H](O)[C@H](O)[C@H](O)CO [mannitol] | – | delay and suppression of qLTG-3-1 expression | – | all the varieties showed a delay in germination
